Experimental data: US6762197B2 (priority 1999, dated 2004)

How the values were obtained:
Sphaerotheca fuliginea = Sphaerotheca fuliginea control effect test (Test Example 6, large-volume foliar spray on cucumber); type: in vivo; settings: 200 ppm, flowable (Formulation Example 6), sprayed on cucumber (SAGAMI HANJIRO) before inoculation, 12 days at 23° C.
Experimental: Test Examples 1 to 6 are tests using a large amount (about 2000 L/ha) of spray on plants, and the extent of spraying is so that the whole surface of a plant body is completely wet and the sprayed liquid drips.
(§1) In the following tests, compounds of the invention are represented by compound numbers described in Tables 1 to 8. The control effect of a compound of the invention was evaluated by visually observing the area of a lesion on a sample plant in investigation and comparing the area of a lesion in a non-treatment district and the area of a lesion in a districts treated with the compound of the invention.
Sand loam was compacted in a plastic pot, a cucumber (SAGAMI HANJIRO) was seeded and grown in a green house for 12 days. Then, the Compound 1 was formulated into flowable fomulation according the Formulation Example 6, then, diluted with water to provide given concentration (200 ppm), and this was sprayed onto stems and leaves so as to give sufficient adhesion on the surface of cucumber leaves. After spraying, the plant was air-dried, and Sphaerotheca fuliginea spores were inoculated. After inoculation, the plant was first left for 12 days at 23° C., then, the control effect was checked.

Erysiphe graminis = Erysiphe graminis control effect test (Test Example 7, small-volume spray 200 L/ha on wheat); type: in vivo; settings: 1000 ppm, emulsifiable formulation (Formulation Example 7), spray amount corresponding to 200 L/ha, wheat (NORIN No. 73), inoculated one day after, 7 days at 23° C.
Text: (§2) Test Examples 7 and 8 are tests using a small amount (corresponding 200 L/ha) of spray on plants, in which fine small liquid drops of a spray are uniformly adhere to the surface of a plant body and the extent of spraying is insufficient to for complete wetting of the surface of a plant body.
(§3) Controlling on a wheat disease in a field is so conducted in some cases that the spray liquid amount is about 200 L/ha. In this case, the amount of the sprayed liquid is insufficient for wetting of the whole plant body, and the sprayed liquid is adheres on a plant as fine liquid drops. For exerting high control effect on the subject diseases even under such spray condition, suitable physicochemical properties such as permeation transfer property, volatility and the like are required in addition to a basic effect.
as §1
(§4) Sand loam was compacted in a plastic pot, a wheat (NORIN No. 73) was seeded and grown in a green house for 10 days. […]

Puccinia striiformis = Puccinia striiformis control test (Test Example 8, small-volume spray 200 L/ha on wheat); type: in vivo; settings: 1000 ppm, emulsifiable formulation (Formulation Example 7), spray amount corresponding to 200 L/ha, wheat (NORIN No. 73), 1 day dark high humidity at 23° C. then 6 days under illumination
Text: as §2, §3, §1, §4

Row | SMILES | melting point [°C] | lesion area on plants relative to the lesion area of a non-treatment district (Sphaerotheca fuliginea) | lesion in the treatment district (control effect) (Erysiphe graminis) | lesion in the treatment district (control effect) (Puccinia striiformis)
1 | Cc1ccc(Br)cc1Cn1c(C(F)F)nn(C)c1=O | 107.6 | – | – | –
2 | Cc1ccc(-c2ccccc2)cc1Cn1c(C(F)F)nn(C)c1=O [Compound 1, 5-difluoromethyl-2-methyl-4-(2-methyl-5-phenylbenzyl)-2,4-dihydro-3H-1,2,4-triazol-3-one] | 72.7 | not more than 10% | no lesion was recognized at all | no lesion was recognized at all
